The values below come from paper PMC9265830, “Purification and Identification of a Novel Angiotensin Converting Enzyme Inhibitory Peptide from the Enzymatic Hydrolysate of Lepidotrigla microptera” (Foods, 2022).

“Also recorded” adds a separate entry of the source. Where no end group is shown, it is not given here.

Series [1] concerns the target T1, ACE (Homo sapiens, UniProt P12821). In words: Inhibitory kinetics study (Lineweaver–Burk plots). The series is classed as biochemical. The conditions noted are these: for Vmax of the enzyme reaction: HHL 1-5 mM, Vmax without peptide 20 mM/min. The protocol: Different concentrations of ACE-inhibitory peptide (0, 60, and 120 μM) were mixed with various concentrations of HHL solution (1, 2, 3, 4 and 5 mM) and pre-incubated for 5 min at 37 °C. Then the reaction was initiated by adding 80 µL of ACE and terminated by adding 20 µL of 1 mol/L HCl. The Lineweaver–Burk plot of the reciprocal of the HHL concentration (1/[s]) and the HA production rate (1/[v]) were used to analyze the inhibitory kinetics of peptide.

Series [2] can be described thus: Thermal stability of ACE inhibitory activity. The series is classed as physicochemical. The protocol:
(§1) ACE-inhibitory activity was determined following the method of Cushman. The reaction system comprised a sample (10 μL), HHL (2.5 mM, 30 μL), and ACE solution (0.1 U/mL, 20 μL) in sodium borate buffer (pH 8.3, 0.3 M NaCl). The mixture of HHL and the sample was pre-incubated for 15 min at 37 °C before adding the ACE solution. The reaction was carried out for 40 min at 37 °C in a water bath and terminated by adding HCl (1 mol/L, 60 μL). Then 20 μL of the reaction mixture was injected into an HPLC system (Shimadzu, Japan) equipped with a C-18 column (150 × 4.6 mm, 5 μm). In order to detect the concentration of HA (hippuric acid), isocratic elution was performed for 25 min in 80% mobile phase A (0.05% Trifluoroacetic acid in H2O) and 20% mobile phase B (Acetonitrile) at a 0.8 mL/min flow rate, and the detection wavelength was 280 nm. The ACE-inhibitory activity was calculated according to the formula:ACE-inhibitory activity (%) = (A1 − A2)/A1(1) where A1 and A2 equal the peak areas of blank control and the sample, respectively.
The sample (0.2 mg/mL) was treated at various temperatures (20, 40, 60, 80, and 100 °C) for 1 h. After cooling the solution to indoor temperature (25 °C), the ACE inhibition activity was detected.

A short description of series [3]: pH stability of ACE inhibitory activity. The format is physicochemical. The note with it: 0.2 mg/mL, 37 °C, 2 h, pH 3 to 11 (method: 2, 4, 6, 8, 10), readjusted to pH 7.0; read-out ACE inhibition. The protocol: as §1
The ACE-inhibitory peptide solution (0.2 mg/mL) was incubated at different pH levels (2, 4, 6, 8, and 10) at 37 °C for 2 h, and the pH value was adjusted by adding HCl (1 mol/L) and NaOH (1 mol/L). Before the ACE inhibition rate was determined, the pH value was adjusted to 7.0.

In the next series the test system is pepsin, pancreatin. In words: Simulated gastrointestinal digestion. The series is classed as in vitro ADME. The note with it: 0.2 mg/mL; pepsin 0.05% pH 2.0 2 h 37 °C, then pancreatin 0.05% pH 7.5 2 h 37 °C; read-out ACE inhibition. The protocol:
as §1
Simulated gastrointestinal digestion of ACE-inhibitory peptides was conducted following the method of Lai et al. with slight modifications. […]

Series [4] has as its target T1, ACE. In words: ACE-inhibitory activity (HHL substrate, hippuric acid by HPLC). The conditions noted are these: ultrafiltration, Sephadex G-15 and prep-HPLC fractions; chemically synthesized peptides; read-out: IC50 (ACE inhibition) of fractions and synthesized peptides (converted). The format is biochemical. The protocol:
as §1

T1 sequence (P12821 30-1306, species assumed): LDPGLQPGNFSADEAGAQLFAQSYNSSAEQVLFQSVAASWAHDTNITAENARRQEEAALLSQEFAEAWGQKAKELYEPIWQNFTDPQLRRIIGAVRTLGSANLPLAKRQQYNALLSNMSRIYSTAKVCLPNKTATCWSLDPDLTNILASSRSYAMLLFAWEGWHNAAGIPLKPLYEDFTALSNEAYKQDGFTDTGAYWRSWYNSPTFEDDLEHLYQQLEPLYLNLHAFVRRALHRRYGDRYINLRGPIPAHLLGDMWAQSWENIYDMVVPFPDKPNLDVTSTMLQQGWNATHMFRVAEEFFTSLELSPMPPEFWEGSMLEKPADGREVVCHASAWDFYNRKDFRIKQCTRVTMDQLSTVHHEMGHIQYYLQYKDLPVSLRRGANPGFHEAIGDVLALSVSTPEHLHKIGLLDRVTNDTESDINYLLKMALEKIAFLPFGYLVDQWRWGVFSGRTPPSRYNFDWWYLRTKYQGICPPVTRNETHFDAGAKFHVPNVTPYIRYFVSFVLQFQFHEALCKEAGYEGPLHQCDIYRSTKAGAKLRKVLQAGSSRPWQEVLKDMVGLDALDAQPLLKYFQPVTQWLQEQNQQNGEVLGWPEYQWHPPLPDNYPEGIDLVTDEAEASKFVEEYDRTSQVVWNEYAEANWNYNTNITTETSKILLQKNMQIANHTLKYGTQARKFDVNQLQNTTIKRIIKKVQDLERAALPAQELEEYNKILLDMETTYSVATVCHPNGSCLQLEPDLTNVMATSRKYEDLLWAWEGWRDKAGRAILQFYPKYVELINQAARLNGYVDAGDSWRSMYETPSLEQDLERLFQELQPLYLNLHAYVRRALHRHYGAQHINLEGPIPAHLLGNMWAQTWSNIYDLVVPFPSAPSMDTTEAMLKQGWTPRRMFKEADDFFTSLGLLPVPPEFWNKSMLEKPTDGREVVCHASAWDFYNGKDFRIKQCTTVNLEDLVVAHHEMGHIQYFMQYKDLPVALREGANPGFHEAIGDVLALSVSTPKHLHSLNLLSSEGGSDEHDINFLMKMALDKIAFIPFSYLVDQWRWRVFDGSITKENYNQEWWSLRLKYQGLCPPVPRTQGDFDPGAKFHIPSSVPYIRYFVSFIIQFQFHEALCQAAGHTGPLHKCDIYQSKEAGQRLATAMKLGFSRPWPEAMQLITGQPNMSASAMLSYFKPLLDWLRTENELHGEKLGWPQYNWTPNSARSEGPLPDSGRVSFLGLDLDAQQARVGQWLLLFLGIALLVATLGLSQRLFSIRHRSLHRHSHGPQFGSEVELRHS

On to `CC(C)C[C@H](NC(=O)CNC(=O)[C@H](C)NC(=O)[C@@H](NC(=O)[C@H](CC(C)C)NC(=O)[C@@H](N)CC(=O)O)[C@@H](C)O)C(=O)N[C@@H](CC(C)C)C(=O)N[C@@H](CCC(=O)O)C(=O)O` [DLTAGLLE, Phe-Leu-Thr-Ala-Gly-Leu-Leu-Asp], for which the “Vmax of the enzyme reaction” value at ACE [1] (60 μM peptide) is 5 mM/min; at ACE [1] (120 μM peptide), 2.78 mM/min. Further, the Inhibitory kinetic mechanism result at ACE [1] (Lineweaver–Burk plot) is recorded as “noncompetitive”. The “ACE-inhibitory activity after heat treatment” value in series [2] (0.2 mg/mL, 1 h, temperature above 60 °C (up to 100 °C), read-out ACE inhibition) is “slightly decreased”. For the same compound, in series [2] (0.2 mg/mL, 1 h, temperature range 20 to 60 °C, read-out ACE inhibition), the “ACE-inhibitory rate after heat treatment” value is on record as “remained relatively stable”. Besides, the “Stability of ACE-inhibitory activity (abstract summary)” value in series [2] (temperatures (<100 °C) and pH values (3.0–11.0)) was “stable”. For the same compound, the “ACE-inhibitory activity after pH treatment” value in series [3] was “maintained high ACE-inhibitory activity at all pH values”. Also, the “Relative ACE inhibition activity before and after digestion” value in the series on pepsin, pancreatin is “retained after gastrointestinal digestion; also recorded: essentially unchanged”.

The term IC50 denotes the point on the concentration scale where inhibition reaches its midpoint. With “YLTLFLLT [YLTLFLLT, Tyr-Leu-Thr-Leu-Phe-Leu-Leu-Thr]”, the IC50 on ACE [4] is 214 µM.
